From article PMC10762035, “Molecular basis of human trace amine-associated receptor 1 activation” (Nature Communications, 2024)
“And” between values parts separate entries of the source, which are not always exact repeats. Identical values can stand only once.

Columns and labels:
hTA1 [1] = biological target: T1, hTA1 (Homo sapiens, UniProt Q96RJ0); assay: GloSensor cAMP accumulation assay, concentration response, wild-type hTA1 in transfected HEK293T cells; format: cell-based; settings: log[Compound], replicate wells;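 also: luminescence read after 30 min compound exposure at room temperature in cells preloaded with D-Luciferin, reflecting Gs-driven cAMP rise, efficacy scaled to the maximal β-PEA response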
T1 construct: expressed in transfected cells; host or cells: HEK293T
T1 sequence (Q96RJ0 1-339): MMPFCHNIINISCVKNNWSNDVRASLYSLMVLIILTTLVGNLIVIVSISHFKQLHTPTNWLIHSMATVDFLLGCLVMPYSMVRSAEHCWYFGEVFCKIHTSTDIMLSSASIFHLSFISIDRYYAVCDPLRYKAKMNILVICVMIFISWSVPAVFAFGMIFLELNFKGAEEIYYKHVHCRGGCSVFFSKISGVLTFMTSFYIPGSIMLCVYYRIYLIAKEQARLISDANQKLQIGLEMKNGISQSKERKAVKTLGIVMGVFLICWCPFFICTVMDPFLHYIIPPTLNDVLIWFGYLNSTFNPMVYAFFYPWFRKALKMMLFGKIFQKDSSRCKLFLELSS

hTA1 [2] = biological target: T1, hTA1; assay: Screen of 89 aminergic compounds at 10 µM, cAMP accumulation in HEK293T cells; format: cell-based; settings: for Luminescence for Screening Data: quadruplicate values, screen at 10 µM;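 as to all read-outs here: HEK293T cells co-transfected with hTA1 and GloSensor cAMP reporter, cAMP accumulation detected by luminescence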

For Cc1cc(C(C)(C)C)c(O)c(C)c1CC1=NCCN1 [oxymetazoline], the “Normalized Luminescence Counts for WT hTA1” value (hTA1 [1]; M = -5) was 35.3607 and 39.1587 and 34.0837 and 3.969 and 2.152 and 2.824, the “Normalized Luminescence Counts for WT hTA1” value (hTA1 [1]; M = -5.522) was 27.6664 and 21.0198 and 25.8983 and 1.56 and 0.6511 and 0.8091 and the “Normalized Luminescence Counts for WT hTA1” value (hTA1 [1]; M = -6) was 14.0131 and 12.0159 and 14.9299 and -0.5736 and -1.127 and -1.4822. The “Normalized Luminescence Counts for WT hTA1” value (hTA1 [1]; M = -6.522) was 3.994 and 5.664 and 5.697 and -1.838 and -1.68 and -1.798, the “Normalized Luminescence Counts for WT hTA1” value (hTA1 [1]; M = -7) was 1.539 and 1.637 and 2.128 and -1.4822 and -2.075 and -1.719 and the “Normalized Luminescence Counts for WT hTA1” value (hTA1 [1]; M = -7.522) was -0.1968 and -0.426 and -0.09854 and -2.035 and -2.2723 and -2.391. The “Normalized Luminescence Counts for WT hTA1” value (hTA1 [1]; M = -8) was 0.03243 and -0.0003118 and 0.1634 and -1.166 and -0.9291 and -1.403, the “Normalized Luminescence Counts for WT hTA1” value (hTA1 [1]; M = -8.522) was -0.7206 and -0.5569 and -0.1313 and -1.364 and -1.522 and -1.956 and the “Normalized Luminescence Counts for WT hTA1” value (hTA1 [1]; M = -9) was -0.7534 and -0.7861 and -0.0003118 and -1.403 and -1.798 and -2.035. For the same compound, the “Normalized Luminescence Counts for WT hTA1” value (hTA1 [1]; M = -9.522) was -0.7206 and -0.4914 and -0.5569 and -1.4822 and -1.64 and -1.838, the “Normalized Luminescence Counts for WT hTA1” value (hTA1 [1]; M = -10) was -1.31 and -1.0153 and -0.5242 and -2.075 and -1.4427 and -2.3118 and the “Normalized Luminescence Counts for WT hTA1” value (hTA1 [1]; M = -10.522) was -0.1313 and -0.7206 and -0.7861 and -2.075 and -1.4822 and -2.43. For the same compound, the “Normalized Luminescence Counts for WT hTA1” value (hTA1 [1]; M = -11) was -0.03305 and -0.6224 and 0.03243 and -1.522 and -0.4551 and -2.114, the “Normalized Luminescence Counts for WT hTA1” value (hTA1 [1]; M = -11.522) was -0.4914 and -0.4587 and -0.5242 and -1.403 and -1.048 and -2.075 and the “Normalized Luminescence Counts for WT hTA1” value (hTA1 [1]; M = -12) was -0.5897 and -0.6224 and -0.3932 and -2.035 and -1.4427 and -1.956. For the same compound, the “Normalized Luminescence Counts for WT hTA1” value (hTA1 [1]; M = -12.522) was 0.09791 and 0.06517 and -0.7861 and -1.64 and -1.127 and -0.8106 and the “increase of signal over DMSO-treated controls (hTA1 activation)” value (hTA1 [2]; 10 µM of compound, HEK293T, threshold log2-fold change of 2) was no less than 4 fold.

In the case of CN1CCC(c2cn(C)c3ccc(OS(=O)(=O)c4c(F)cccc4F)cc23)CC1.O=C(O)C(=O)O [SGS 518 oxalate], the “Luminescence for Screening Data” value (hTA1 [2]) is reported as 6.7 and 6.8 and 8.

In the case of CCCCN1CCC(COC(=O)c2cc(Cl)c(N)c3c2OCCO3)CC1 [SB204070], the “Luminescence for Screening Data” value (hTA1 [2]) is reported as 5.4 and 6 and 6.4.

With Cl.O=C(c1ccc(F)cc1)C1CCN(CCn2c(=S)[nH]c3ccccc3c2=O)CC1 [Altanserin hydrochloride hydra] the “Luminescence for Screening Data” value (hTA1 [2]) was 9.1 and 6 and 8.8 and 5.9.

For CCCCCCCCCOc1ccc2[nH]cc(CCN)c2c1 [5-nonyloxytryptamine], the “Luminescence for Screening Data” value (hTA1 [2]) was 10.6 and 10.3 and 13.3 and 10.2.

O=C(CCCN1CCC2(CC1)C(=O)NCN2c1ccccc1)c1ccc(F)cc1 [Spiperone] was tested, and the “Luminescence for Screening Data” value (hTA1 [2]) was 6.2 and 8.3 and 7.1 and 6.7.

CCN(CC)C(=O)[C@@H]1C=C2c3cccc4[nH]c(Br)c(c34)C[C@H]2N(C)C1 [2-Br LSD] was tested, and the “Luminescence for Screening Data” value (hTA1 [2]) was 10.4 and 10.1 and 9.5 and 7.6.

With CN1[C@@H](CC(=O)c2ccccc2)CCC[C@H]1C[C@H](O)c1ccccc1.CN1[C@@H](CC(=O)c2ccccc2)CCC[C@H]1C[C@H](O)c1ccccc1.O=S(=O)(O)O [Lobeline sulfate] the “Luminescence for Screening Data” value (hTA1 [2]) was 7.2 and 5 and 5.7 and 5.4.

In the case of O=C1NCCN1CCN1CCC(c2cn(-c3ccc(F)cc3)c3ccc(Cl)cc23)CC1 [Sertindole], the “Luminescence for Screening Data” value (hTA1 [2]) is reported as 7.6 and 9 and 6.3.

With O=c1c(O)c(-c2ccc(O)c(O)c2)oc2cc(O)cc(O)c12 [Quercetin] the “Luminescence for Screening Data” value (hTA1 [2]) was 31.9 and 24.7 and 28.4 and 23.7.
